Results taken from patent US20210270855A1, “PIP2 AS A MARKER FOR HDL FUNCTION AND CARDIOVASCULAR DISEASE RISK” (The Cleveland Clinic Foundation, priority 2016, published 2021).

Experiments:
[1] = test system: ABCA1 induced RAW264.7 cells; experiment: Cholesterol efflux to apoA1 from ABCA1-induced RAW264.7 cells; format: cell-based, mouse; conditions: for ABCA1-dependent cholesterol efflux to apoA1: RAW264.7, 1 μM inhibitor, apoA1 chase
Description: (§1) Cell growth and ABCA1 induction: All cell culture incubations were performed at 37° C. in humidified 5% CO2 incubator. The growth media was Dulbecco's Modified Eagle Medium (DMEM) with 10% fetal calf serum, 100 μg/mL penicillin, 100 μg/mL […]. ABCA1 was induced in […] cells by 16-24 hr incubation with 0.3 mM 8Br-cAMP^34. ABCA1 was induced in BHK cells by 16-24 hr incubation with 10 nM mifepristone^31. Inducers were included in the media during subsequent assays. ABCA1 expression was confirmed by western blot using the AC10 antibody (Santa Cruz Biotech).
Cholesterol efflux assay: On day 1, cells were plated on 24-well plates at a density of 20,000 to 400,000 cells per well. On day 2, the cells were labeled with […] [^3H]cholesterol in DMEM containing 1% FBS. On day 3, the cells when indicated were treated with or without ABCA1 inducers in serum-free DMEM. On day 4 (or day 3 for HEK293 cells and ABCA1 stably transfected cells) the cells were washed and chased for 4-6 hr in serum-free DMEM in the presence or absence of 5 μg/ml apoA1. The radioactivity in the chase media was determined after brief centrifugation to pellet any residual debris. Radioactivity in the cells was determined by extraction in hexane:isopropanol (3:2) with the solvent evaporated in a scintillation vial prior to counting. The percent cholesterol efflux was calculated as 100×(medium dpm)/(medium dpm+cell dpm).
Tmem55b knockdown: The siRNA to mouse Tmem55b (Origene, #SR408149) and scrambled control were transfected in RAW264.7 cells using siTran 1.0 (Origene). The cellular protein extracts were prepared using NP-40 lysis buffer containing protease inhibitors. The knockdown efficacy was determined by western blot using anti Tmem55b antibody (Santa Cruz).

immobilized apoA1 = molecular target: T1, immobilized apoA1 (Homo sapiens, UniProt P02647); experiment: Surface plasmon resonance, lipid binding to immobilized apoA1; conditions: biotinylated apoA1 on sensor chip; PC at 1 μM
T1 construct: ApoA1 was purified form human plasma^29, and dialyzed against PBS; from tissue; host or cells: human plasma
T1 sequence (P02647 25-267 limits assumed): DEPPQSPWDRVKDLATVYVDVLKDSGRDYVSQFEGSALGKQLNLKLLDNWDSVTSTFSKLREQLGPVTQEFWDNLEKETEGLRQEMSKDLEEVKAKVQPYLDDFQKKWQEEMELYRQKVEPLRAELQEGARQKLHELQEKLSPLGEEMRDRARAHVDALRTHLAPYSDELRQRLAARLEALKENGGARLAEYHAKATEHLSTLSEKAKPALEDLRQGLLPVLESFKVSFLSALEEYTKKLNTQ
Description: (§2) Surface Plasmon resonance: Binding kinetic of PIP2 with different apolipoproteins was analyzed using a Biacore3000 instrument. Either biotinylated apoA1 or biotinylated PIP2 was immobilized on a streptavidin (SA) sensor chip (GE Healthcare). The immobilized apoA1 or PIP2 was stable over the course of the experiment and baseline drift was <10 response units (RU)/h after the washing with Hepes buffered saline (FIBS) buffer. Different concentrations of apoA1 or PIP2 were injected using the KINJECT procedure at flow-rate of 10 μl/min and dissociation was monitored by injecting FIBS buffer. The injections were performed in triplicate for each ligand concentration. For comparing binding kinetics of PIP2 with apoA1, apoA2 and apoE, these proteins were immobilized by covalent coupling on a CMS sensor chip (GE Healthcare) using EDC-NHS reagents. PIP2 was injected as described above. Corrected response data were fitted with BIAevaluation software version 4.01, and Kd values were calculated.

apoA1 = apoA1 (Homo sapiens, UniProt P02647); experiment: Fluorescence anisotropy, apoA1 binding to bodipy-labeled PIP2; conditions: summary statement in the detailed description; read-out: dissociation constant of apoA1 binding to PIP2
Sequence of apoA1 (P02647 25-267 limits assumed): as above

[2] = test system: ABCA1 expressing RAW264.7 cells; experiment: ApoA1 cell binding by flow cytometry, RAW264.7 cells; format: cell-based, mouse; conditions: ABCA1-induced RAW264.7, apoA1 pre-incubated with PIP2 (5:1 mole ratio)
Description: as §1
Cell surface PS, PIP2, and apoA1 binding assays via flow cytometry: Cell surface PS levels were determined by flow cytometry after cell scraping in PBS, re-suspension in Annexin V binding buffer, and incubation with AnnexinV-Cy5 (Biovision) at room temperature for 5 minutes in the dark. Cell surface PIP2 levels were determined by flow cytometry by incubation with Alexa647 or FITC labeled anti-PIP2 antibody (Echelon) in phenol red-free, serum-free, DMEM at room temperature for 30 min. Human apoA1 was labeled with Alexa647 (Molecular Probes) on free amines using a 6:1 mole ratio of dye:apoA1. Alexa647-apoA1 binding was determined by flow cytometry after incubation with cells for 45 minutes at room temperature. […] Data was analyzed by Flowjo software and the median relative fluorescent intensities were compared.

apoA2 = molecular target: T2, apoA2 (Homo sapiens, UniProt P02652); experiment: Surface plasmon resonance, PIP2 binding to immobilized apoA2
T2 construct: purchased Origene TP721104
T2 sequence (P02652 19-100): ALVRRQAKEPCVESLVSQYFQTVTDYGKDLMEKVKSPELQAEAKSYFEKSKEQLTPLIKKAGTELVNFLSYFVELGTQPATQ
Description: as §2

apoE = molecular target: T3, apoE (Homo sapiens, UniProt P02649); experiment: Surface plasmon resonance, PIP2 binding to immobilized apoE
T3 construct: purchased Origene TP723016
T3 sequence (P02649 19-317): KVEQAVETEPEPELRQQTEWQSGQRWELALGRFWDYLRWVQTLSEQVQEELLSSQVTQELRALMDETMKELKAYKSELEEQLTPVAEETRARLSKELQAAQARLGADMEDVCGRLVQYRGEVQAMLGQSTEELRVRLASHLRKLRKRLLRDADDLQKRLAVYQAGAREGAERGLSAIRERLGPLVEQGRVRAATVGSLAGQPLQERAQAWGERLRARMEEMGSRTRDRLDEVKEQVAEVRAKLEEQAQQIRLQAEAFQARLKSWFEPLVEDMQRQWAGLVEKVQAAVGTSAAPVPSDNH
Description: as §2

CC(C)(C)C(=O)Nc1ccc2c(c1)C(=O)C(=O)c1ccccc1-2 [SF1670]
ABCA1-dependent cholesterol efflux to apoA1 [1]: decreased

CC(=O)Nc1nc(C)c(-c2ccc(Cl)c(S(=O)(=O)NCCO)c2)s1 [PIK-93]
ABCA1-dependent cholesterol efflux to apoA1 [1]: decreased

phosphatidylcholine [PC]
binding to immobilized apoA1 (SPR) (immobilized apoA1): no binding

CCCCC/C=C\C/C=C\C/C=C\C/C=C\CCCC(=O)O[C@H](COC(=O)CCCCCCCCCCCCCCCCC)COP(=O)(O)O[C@@H]1[C@H](O)[C@H](O)[C@@H](OP(=O)(O)O)[C@H](OP(=O)(O)O)[C@H]1O [PIP2, phosphatidylinositol (4,5) bis-phosphate]
cholesterol efflux to apoA1 ([1]; ABCA1-induced RAW264.7, apoA1 5 μg/ml pre-incubated with PIP2 (PIP2:apoA1 5:1 mole ratio)): decreased
binding to immobilized apoA1 (SPR) (immobilized apoA1): direct binding
Kd (apoA1): ~100 nM
apoA1 binding [2]: decreased
direct binding to apoA2 (SPR) (apoA2): direct binding
direct binding to apoE (SPR) (apoE): direct binding
